We go through one compound from US20250339443A1, “METHOD FOR TREATING OR PREVENTING CALCIUM RELEASE-ACTIVATED CALCIUM CHANNEL OR DISCOIDIN DOMAIN RECEPTOR 2 RELATED DISORDERS OR CONDITIONS” (LumiSTAR Biotechnology, Inc., priority 2023, published 2025).

The test system of assay [1] is obstruction-induced persistent progression of renal fibrosis. Put plainly: Kidney transcriptome (RNA sequencing, ingenuity pathway analysis) in RUUO mice. It is filed as in vivo, mouse. The conditions noted are these: treated after the obstruction was released (7/15*d). The source says:
FIG. 10A and FIG. 10B display how WRG-28 and Av treatments effectively reduce RUUO-induced overwhelming fibrosis and inflammation. In FIG. 10A, total ribonucleic acid (RNA) extracts from control mice (sham) and mice treated with DMSO, WRG-28, or Av after the obstruction was released (7/15*d) underwent ingenuity pathway analysis (IPA). Both FIG. 10A and FIG. 10B illustrate large-scale transcriptome analysis, further affirming the potent effects of WRG-28 and Av in preventing and protecting kidneys from progressive fibrosis.
Total RNA was extracted from kidneys by homogenizing the samples in TRIzol reagent (Invitrogen). Chloroform was added and the homogenate separates into three layers, the upper clear aqueous containing RNA was transferred into a new tube, and RNA was precipitated by adding isopropanol. The pellets were washed with 70% ethanol and then dissolved in RNase-free water. The RNA passes the quality control, including RNA integrity number (RIN) >7, OD260/OD280 ˜1.8, etc., were sent for sequencing. Transcriptomes were analyzed by ingenuity pathway analysis (IPA).
Total ribonucleic acid (RNA) was extracted from […]: control mice (sham) and mice that received treatments with DMSO, WRG-28, or Av after the obstruction was released (7/15*d). Transcriptomes were then analyzed by ingenuity pathway analysis (IPA). […]

In assay [2] the target is CRAC channel (Homo sapiens, UniProt Q96D31). The assay is described as follows: CRAC channel activity / SOCE in HCF. It is filed as cell-based. Details: endogenous in cells. Conditions: 10 μM pretreatment 45 min. The protocol: Cells were co-treated with various compounds (10 μM) and TGF-β1 for 24 hours. Following this, cell lysates were harvested, and the protein expression was assessed by Western blot analysis. FIG. 3D depicts the examination of TGF-β1-induced fibronectin deposition and α-SMA expression in HCF treated with 10 μM of DMSO, BTP2, WRG-28, or Av through immunofluorescence staining. The images were captured using a confocal microscope, the Olympus FV-1000. FIG. 3E, FIG. 3F, and FIG. 3G illustrate the assessment of CRAC channel activity in HCF, MRC5, and rat HSC-T6. These cells were pretreated with 10 μM of BTP2, WRG-28, or Av for 45 min. The evaluation included measuring the second peak of each calcium wave and the rate of entry. Each bar within the figure represents the mean value derived from 77 to 91 cells for HCF, 31 to 49 cells for MRC5, and 43 to 94 cells for HSC-T6. In all the graphs, *, **, and *** denote p-values of <0.05, 0.01, and 0.001, respectively.
Sequence of CRAC channel (Q96D31 whole entry): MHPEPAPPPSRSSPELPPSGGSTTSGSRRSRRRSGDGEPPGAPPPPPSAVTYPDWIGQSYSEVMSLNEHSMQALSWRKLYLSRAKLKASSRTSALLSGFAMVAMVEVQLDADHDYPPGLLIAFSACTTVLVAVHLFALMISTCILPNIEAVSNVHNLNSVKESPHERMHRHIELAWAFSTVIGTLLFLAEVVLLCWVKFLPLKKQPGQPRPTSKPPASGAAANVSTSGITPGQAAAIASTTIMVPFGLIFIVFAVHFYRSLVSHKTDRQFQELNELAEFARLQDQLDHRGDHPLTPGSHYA
Cells cultured on a glass-bottom 96 well plate for 48 hours were treated with different compounds (10 μM) and Fura 2-AM (1 μM) simultaneously in a solution containing 145 mM NaCl, 2.8 mM KCl, 2 mM CaCl2, 2 mM MgCl2, 10 mM D-glucose, 10 mM HEPES, pH 7.4 for 40 minutes in the dark. […] All the images were analyzed by using IGOR Pro software. […]

In the case of `CCNS(=O)(=O)c1ccc(COc2ccc3nc4ccc(=O)cc-4oc3c2)cc1` [WRG-28], the “inflammatory responses and fibrotic signaling pathways (transcriptome, IPA)” value in assay [1] is “reduced”. Also, the SOCE result in assay [2] is listed as “notably reduced”.
